Like-named read-outs stand apart in the source and are kept apart here.
What was measured:
hNav1.1 (SCN1A) = hNav1.1 (SCN1A) (Homo sapiens, UniProt P35498); assay: Use-dependent inhibition of the CNS Nav1.1 sodium channel; format: cell-based; settings: use-dependent block, 25 Hz, pulse 20, read-out: Nav1.1 UDB 25 Hz 10 uM
Outline: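 HEK-293 cells stably expressing WT hNav1.1, automated whole-cell patch clamp at 23-25 °C with CsF-based internal and NaCl external solutions, pH 7.35. Compound applied twice, 200 s equilibration; block measured at pulse 20 of a 25 Hz train (0 mV, 20 ms) from −120 mV, as mean % inhibition versus compound-free.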

[1] = target: wild-type human cardiac sodium channel, hNav1.5 (Homo sapiens, UniProt Q14524); assay: Peak INa screening assay (tonic block and use-dependent block); format: cell-based
Outline: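 Whole-cell automated patch clamp, 23-25° C, on hNav1.5 alpha-only HEK293 cells with Na+ lowered to 40 mM by choline. Block measured after two additions of 1 or 3 μM compound and 200 s wait: tonic at 0.1 Hz, use-dependent at 50th pulse (−20 mV, 20 ms, 3 Hz) from −100 mV, relative to drug-free, rundown corrected.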

[2] = tonic block of Peak INa, 0.1 Hz, holding -100 mV, read-out: Peak TB 3 uM
[3] = use-dependent block of Peak INa, 3 Hz, pulse 50, read-out: Peak UDB 3 Hz 3 uM

wild-type human cardiac sodium channel, hNav1.5, sequence (Q14524 whole entry): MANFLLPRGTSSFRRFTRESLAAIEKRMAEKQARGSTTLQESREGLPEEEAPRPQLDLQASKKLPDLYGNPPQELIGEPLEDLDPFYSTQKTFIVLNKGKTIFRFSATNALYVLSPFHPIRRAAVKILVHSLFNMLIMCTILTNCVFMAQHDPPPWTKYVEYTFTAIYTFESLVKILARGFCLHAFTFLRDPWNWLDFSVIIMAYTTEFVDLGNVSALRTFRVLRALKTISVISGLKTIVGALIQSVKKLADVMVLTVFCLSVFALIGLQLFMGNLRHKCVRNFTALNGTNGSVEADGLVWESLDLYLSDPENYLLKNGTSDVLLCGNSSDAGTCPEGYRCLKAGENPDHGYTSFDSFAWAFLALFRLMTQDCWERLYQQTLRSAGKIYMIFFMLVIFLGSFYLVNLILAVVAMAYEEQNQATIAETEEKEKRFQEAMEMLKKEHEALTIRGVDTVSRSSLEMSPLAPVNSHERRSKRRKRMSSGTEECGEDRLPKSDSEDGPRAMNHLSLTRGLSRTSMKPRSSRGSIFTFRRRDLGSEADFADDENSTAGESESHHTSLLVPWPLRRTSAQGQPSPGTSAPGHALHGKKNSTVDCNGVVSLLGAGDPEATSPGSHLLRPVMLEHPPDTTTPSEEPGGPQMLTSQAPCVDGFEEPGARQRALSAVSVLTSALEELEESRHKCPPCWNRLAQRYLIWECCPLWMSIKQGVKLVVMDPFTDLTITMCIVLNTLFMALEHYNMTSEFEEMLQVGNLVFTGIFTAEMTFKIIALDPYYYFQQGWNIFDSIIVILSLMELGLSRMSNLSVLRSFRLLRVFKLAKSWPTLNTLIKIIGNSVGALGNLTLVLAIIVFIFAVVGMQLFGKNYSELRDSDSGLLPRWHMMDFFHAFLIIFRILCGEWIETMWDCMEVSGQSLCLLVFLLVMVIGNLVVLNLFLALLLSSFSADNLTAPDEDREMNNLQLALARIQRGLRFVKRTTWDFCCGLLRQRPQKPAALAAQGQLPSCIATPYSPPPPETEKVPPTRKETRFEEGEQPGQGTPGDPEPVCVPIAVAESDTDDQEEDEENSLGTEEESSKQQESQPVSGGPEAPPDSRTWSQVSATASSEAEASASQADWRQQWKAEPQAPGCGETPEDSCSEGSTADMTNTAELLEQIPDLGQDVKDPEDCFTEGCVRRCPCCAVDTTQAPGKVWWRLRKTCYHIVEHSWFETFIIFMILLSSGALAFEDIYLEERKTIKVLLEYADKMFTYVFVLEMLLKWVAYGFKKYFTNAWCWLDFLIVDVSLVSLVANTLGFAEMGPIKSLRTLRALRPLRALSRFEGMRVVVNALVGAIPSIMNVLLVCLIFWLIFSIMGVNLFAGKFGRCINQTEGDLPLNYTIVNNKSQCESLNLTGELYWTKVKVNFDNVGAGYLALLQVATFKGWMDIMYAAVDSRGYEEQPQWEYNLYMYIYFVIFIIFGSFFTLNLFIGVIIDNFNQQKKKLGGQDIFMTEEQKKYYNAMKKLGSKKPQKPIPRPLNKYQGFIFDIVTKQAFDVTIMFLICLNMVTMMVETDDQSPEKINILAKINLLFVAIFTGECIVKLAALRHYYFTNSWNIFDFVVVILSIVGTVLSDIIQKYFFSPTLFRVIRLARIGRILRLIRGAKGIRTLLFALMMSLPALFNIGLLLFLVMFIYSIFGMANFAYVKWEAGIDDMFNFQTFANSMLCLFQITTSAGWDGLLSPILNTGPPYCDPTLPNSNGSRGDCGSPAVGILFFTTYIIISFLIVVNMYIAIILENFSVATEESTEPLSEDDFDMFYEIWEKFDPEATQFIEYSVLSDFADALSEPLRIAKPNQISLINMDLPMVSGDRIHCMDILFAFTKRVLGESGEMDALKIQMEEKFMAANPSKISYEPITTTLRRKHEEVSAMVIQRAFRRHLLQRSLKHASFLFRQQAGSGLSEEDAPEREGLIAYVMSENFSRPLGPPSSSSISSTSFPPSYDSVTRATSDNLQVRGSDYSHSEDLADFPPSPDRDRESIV

SMILES	inhibition at 10 µM (hNav1.1 (SCN1A))	inhibition at 3 µM [1, 2]	inhibition at 3 µM [1, 3]
Cc1cc(OC(F)(F)F)ccc1-c1ccc2onc(OCc3ncccn3)c2c1 [Example 3, 5-(2-methyl-4-(trifluoromethoxy)phenyl)-3-(pyrimidin-2-ylmethoxy)benzo[d]isoxazole]	< 5%	23.2%	11.8%
FC(F)(F)Oc1ccc(-c2ccc3onc(OC[C@@H]4COCCN4)c3c2)cc1 [Example 113, (S)-3-(morpholin-3-ylmethoxy)-5-(4-(trifluoromethoxy)phenyl)benzo[d]isoxazole]	88.4%	54.3%	37.3%
CC(=O)N1CCOC[C@@H]1COc1noc2ccc(-c3ccc(OC(F)(F)F)cc3)cc12 [Example 116, (R)-1-(3-(((5-(4-(trifluoromethoxy)phenyl)benzo[d]isoxazol-3-yl)oxy)methyl)morpholino)ethan-1-one]	70.4%	28.9%	15%
FC(F)(F)Oc1ccc(-c2ccc3onc(OCc4cccnn4)c3c2)cc1 [Example 74, 3-(pyridazin-3-ylmethoxy)-5-(4-(trifluoromethoxy)phenyl)benzo[d]isoxazole]	< 5%	23.5%	< 5%
COCCOc1noc2ccc(-c3ccc(OC(F)(F)F)cc3)cc12 [Example 60, 3-(2-methoxyethoxy)-5-(4-(trifluoromethoxy)phenyl)benzo[d]isoxazole]	27%	30.6%	< 5%
CC(C)(C)OC(=O)N1CCOC[C@H]1COc1noc2ccc(-c3ccc(OC(F)(F)F)cc3)cc12 [Example 111, tert-butyl(S)-3-(((5-(4-(trifluoromethoxy)phenyl)benzo[d]isoxazol-3-yl)oxy)methyl)morpholine-4-carboxylate]	50.4%	< 5%	7.3%
COc1cc2onc(OCc3ncccn3)c2cc1-c1ccc(Cl)c(F)c1 [Example 13, 5-(4-chloro-3-fluorophenyl)-6-methoxy-3-(pyrimidin-2-ylmethoxy)benzo[d]isoxazole]	30.8%	10.7%	< 5%

Source: US9416115B2, “Fused heterocyclic compounds as ion channel modulators” (Gilead Sciences, Inc., priority 2013, dated 2016)
